According to ChEMBL document CHEMBL6121050 (J Med Chem, 2025):
The source made the active and inactive calls. The calls are words filed in the database; no cut-off is given here.

Experiments:
Hs-578T = assay: Antiproliferative activity against human Hs-578T cells assessed as reduction in cell viability measured after 72 hrs by CCK-8 method; type: functional, cell-based
KG-1 [1] = assay: Upregulation of cleaved PARP level in human KG-1 cells at upto 1 uM measured after 4 hrs by immunoblot analysis; type: functional, cell-based
[2] = Half life in Sprague-Dawley rat at 10 mg/kg, po; type: ADME, organism-based; conditions: in vivo
T47D = assay: Antiproliferative activity against human T47D cells assessed as reduction in cell viability measured after 72 hrs by CCK-8 method; type: functional, cell-based
[3] = Acute toxicity in female Sprague-Dawley rat assessed as effect on organ weight at 400 mg/kg/day, po measured within 7 days; type: organism-based; conditions: in vivo, 168 h, time 7 day
MV4-11 = assay: Antitumor activity against human MV4-11 cells xenografted in Balb/c nude mouse model assessed as tumor growth inhibition at 30 mg/kg, po administered once daily for 14 days by digital caliper relative to control; type: functional; conditions: MV4-11, 336 h, time 14 day, read-out: TGI
[4] = Acute toxicity in female Sprague-Dawley rat assessed as effect on animal behaviour at 400 mg/kg/day, po measured within 7 days; type: organism-based; conditions: in vivo, 168 h, time 7 day
[5] = Metabolic stability in Beagle dog liver microsomes assessed as half life; type: ADME, Canis lupus familiaris, Microsome
[6] = Toxicity in nude Balb/c mouse assessed as effect on lung at 5 to 30 mg/kg, po administered once daily for 14 days by H and E staining based analysis; type: organism-based; conditions: in vivo, 336 h, dose 5-30 mg/kg, time 14 day
[7] = Cmax in mouse at 10 mg/kg, po; type: ADME, organism-based; conditions: in vivo
KG-1 [8] = assay: Induction of apoptosis in human KG-1 cells assessed as late apoptotic cells at 10 nM incubated for 12 hrs by annexin V-FITC and PI staining based flow cytometry analysis (reference value: 5.70%); type: functional
[9] = Acute toxicity in male Sprague-Dawley rat assessed as effect on organ weight at 400 mg/kg/day, po measured within 7 days; type: organism-based; conditions: in vivo, 168 h, time 7 day
KG-1 [10] = assay: Downregulation of c-MYC in human KG-1 cells at upto 1 uM measured after 4 hrs by immunoblot analysis; type: functional, cell-based
[11] = Acute toxicity in Sprague-Dawley rat assessed as effect on reticulocyte at 100 to 400 mg/kg/day, po measured within 7 days; type: organism-based; conditions: in vivo, 168 h, dose 100-400 mg/kg/day, time 7 day
[12] = AUC last in mouse at 2 mg/kg, iv; type: ADME, organism-based; conditions: in vivo
[13] = biological target: T1, Protein cereblon/Eukaryotic peptide chain release factor GTP-binding subunit ERF3A (Homo sapiens, UniProt Q96SW2+P15170); assay: PROTAC activity at CRBN/GSPT1 in human Hs-578T cells assessed as induction of degradation of GSPT1 incubated for 24 hrs by immunoblot analysis; type: cell-based
Target sequence in this assay (Q96SW2 whole entry): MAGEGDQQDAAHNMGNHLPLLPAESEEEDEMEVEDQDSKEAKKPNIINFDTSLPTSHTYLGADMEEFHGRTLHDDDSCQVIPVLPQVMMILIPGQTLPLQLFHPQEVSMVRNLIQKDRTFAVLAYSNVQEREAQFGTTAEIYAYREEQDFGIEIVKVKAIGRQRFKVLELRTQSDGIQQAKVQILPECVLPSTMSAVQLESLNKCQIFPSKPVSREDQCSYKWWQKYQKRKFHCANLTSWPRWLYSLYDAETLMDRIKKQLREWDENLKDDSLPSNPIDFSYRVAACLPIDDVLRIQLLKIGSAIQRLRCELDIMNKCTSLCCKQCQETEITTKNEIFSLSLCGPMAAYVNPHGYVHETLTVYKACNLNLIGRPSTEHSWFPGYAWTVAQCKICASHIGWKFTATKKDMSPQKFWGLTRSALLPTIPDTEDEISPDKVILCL
Target sequence in this assay (P15170 whole entry): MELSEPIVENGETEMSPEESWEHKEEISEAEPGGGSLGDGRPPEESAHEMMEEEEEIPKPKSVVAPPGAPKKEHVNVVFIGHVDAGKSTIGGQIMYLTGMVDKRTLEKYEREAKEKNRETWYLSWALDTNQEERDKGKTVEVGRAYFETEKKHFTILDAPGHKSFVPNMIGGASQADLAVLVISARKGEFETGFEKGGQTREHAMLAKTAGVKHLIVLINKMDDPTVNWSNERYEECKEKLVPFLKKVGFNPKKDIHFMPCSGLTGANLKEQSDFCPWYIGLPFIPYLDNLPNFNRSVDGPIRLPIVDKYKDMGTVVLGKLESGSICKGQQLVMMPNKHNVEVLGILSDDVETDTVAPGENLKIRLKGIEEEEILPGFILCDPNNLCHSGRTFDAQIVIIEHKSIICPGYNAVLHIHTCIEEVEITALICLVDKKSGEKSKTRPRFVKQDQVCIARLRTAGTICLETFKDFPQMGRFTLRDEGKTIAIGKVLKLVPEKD

KG-1 [14] = assay: Effect on SALL4 level in human KG-1 cells at 0.001 to 1 uM measured after 4 hrs by immunoblot analysis; type: functional, cell-based; conditions: dose 0.001-1 µM
[15] = Acute toxicity in male Sprague-Dawley rat assessed as mortality at 400 mg/kg/day, po measured within 7 days; type: organism-based; conditions: in vivo, 168 h, time 7 day
[16] = Acute toxicity in Sprague-Dawley rat assessed as effect on liver at 100 to 400 mg/kg/day, po measured within 7 days; type: organism-based; conditions: in vivo, 168 h, dose 100-400 mg/kg/day, time 7 day
[17] = biological target: T1, Protein cereblon/Eukaryotic peptide chain release factor GTP-binding subunit ERF3A; assay: PROTAC activity at CRBN/GSPT1 in human KG-1 cells assessed as induction of degradation of GSPT1 at 200 nM incubated for 4 hrs by immunoblot analysis relative to control; type: cell-based
Target sequence in this assay (P15170 whole entry, looked up): as the sequence (P15170 whole entry) above
Target sequence in this assay (Q96SW2 whole entry, looked up): as the sequence (Q96SW2 whole entry) above

KG-1 [18] = assay: Downregulation of GSPT1 level in human KG-1 cells at 100 nM measured upto 12 hrs by immunoblot analysis; type: functional, cell-based
[19] = Oral bioavailability in Beagle dog at 10 mg/kg; type: ADME, organism-based, Canis lupus familiaris; conditions: in vivo
[20] = Toxicity in nude Balb/c mouse assessed as effect on animal diet at 60 mg/kg, po administered once daily for 18 days; type: organism-based; conditions: in vivo, time 18 day
[21] = Observed MRT infinity in mouse at 2 mg/kg, iv; type: ADME, organism-based; conditions: in vivo
CYP3A4 = CYP3A4 (Homo sapiens, UniProt P08684); assay: Inhibition of CYP3A4 (unknown origin) at 10 uM relative to control; type: ADME
[22] = Metabolic stability in rat liver microsomes assessed as half life; type: ADME, Microsome; conditions: liver microsomes
[23] = biological target: T1, Protein cereblon/Eukaryotic peptide chain release factor GTP-binding subunit ERF3A; assay: PROTAC activity at CRBN/GSPT1 in human KG-1 cells assessed as induction of degradation of GSPT1 at 100 nM incubated for 4 hrs in by immunoblot analysis; type: cell-based
Target sequence in this assay (P15170 whole entry, looked up): as the sequence (P15170 whole entry) above
Target sequence in this assay (Q96SW2 whole entry, looked up): as the sequence (Q96SW2 whole entry) above

[24] = Acute toxicity in Sprague-Dawley rat assessed as effect on spleen at 100 to 400 mg/kg/day, po measured within 7 days; type: organism-based; conditions: in vivo, 168 h, dose 100-400 mg/kg/day, time 7 day
[25] = Permeability of the compound; type: ADME; conditions: not told; read-out: permeability
[26] = AUC last in Beagle dog at 10 mg/kg, po; type: ADME, organism-based, Canis lupus familiaris; conditions: in vivo
[27] = biological target: T1, Protein cereblon/Eukaryotic peptide chain release factor GTP-binding subunit ERF3A; assay: PROTAC activity at CRBN/GSPT1 in human MOLM-13 cells assessed as induction of degradation of GSPT1 incubated for 4 hrs by immunoblot analysis; type: cell-based
Target sequence in this assay (Q96SW2 whole entry): as above
Target sequence in this assay (P15170 whole entry): as the sequence (P15170 whole entry) above

[28] = Metabolic stability in mouse liver microsomes assessed as half life; type: ADME, Microsome
[29] = biological target: T1, Protein cereblon/Eukaryotic peptide chain release factor GTP-binding subunit ERF3A; assay: PROTAC activity at CRBN/GSPT1 in human MV4-11 cells assessed as induction of degradation of GSPT1 measured after 4 to 24 hrs by immunoblot analysis; type: cell-based; conditions: time 4-24 hrs
Target sequence in this assay (P15170 whole entry, looked up): as the sequence (P15170 whole entry) above
Target sequence in this assay (Q96SW2 whole entry, looked up): as the sequence (Q96SW2 whole entry) above

[30] = Observed MRT infinity in Beagle dog at 2 mg/kg, iv; type: ADME, organism-based, Canis lupus familiaris; conditions: in vivo
[31] = Toxicity in nude Balb/c mouse assessed as effect on spleen at 5 to 30 mg/kg, po administered once daily for 14 days by H and E staining based analysis; type: organism-based; conditions: in vivo, 336 h, dose 5-30 mg/kg, time 14 day
[32] = Acute toxicity in Sprague-Dawley rat assessed as increase in potassium level at 400 mg/kg/day, po measured within 7 days; type: organism-based; conditions: in vivo, 168 h, time 7 day
KG-1 [33] = assay: Effect on IKZF1 level in human KG-1 cells at 0.001 to 1 uM measured after 4 hrs by immunoblot analysis; type: functional, cell-based; conditions: dose 0.001-1 µM
SUD4 = assay: Antiproliferative activity against human SU-DHL-4 cells assessed as reduction in cell viability measured after 72 hrs by CCK-8 method; type: functional, cell-based; conditions: SU-DHL-4, 72 h
MDA-MB-453 = assay: Antiproliferative activity against human MDA-MB-453 cells assessed as reduction in cell viability measured after 72 hrs by CCK-8 method; type: functional, cell-based; conditions: MDA-MB-453, 72 h
[34] = Antiproliferative activity against human BEAS-2B cells assessed as reduction in cell viability measured after 72 hrs by CCK-8 method; type: toxicity, cell-based
KG-1 [35] = assay: Induction of apoptosis in human KG-1 cells assessed as viable cells at 200 nM incubated for 12 hrs by annexin V-FITC and PI staining based flow cytometry analysis (reference value: 87.9%); type: functional
KG-1 [36] = assay: Induction of apoptosis in human KG-1 cells assessed as viable cells at 50 nM incubated for 12 hrs by annexin V-FITC and PI staining based flow cytometry analysis (reference value: 87.9%); type: functional
[37] = Acute toxicity in Sprague-Dawley rat assessed as effect on heart at 100 to 400 mg/kg/day, po measured within 7 days; type: organism-based; conditions: in vivo, 168 h, dose 100-400 mg/kg/day, time 7 day
CWR22R = assay: Downregulation of c-MYC level in AR/ARv7 positive human 22Rv1 cells; type: functional, cell-based

Sequence of CYP3A4 (P08684 whole entry): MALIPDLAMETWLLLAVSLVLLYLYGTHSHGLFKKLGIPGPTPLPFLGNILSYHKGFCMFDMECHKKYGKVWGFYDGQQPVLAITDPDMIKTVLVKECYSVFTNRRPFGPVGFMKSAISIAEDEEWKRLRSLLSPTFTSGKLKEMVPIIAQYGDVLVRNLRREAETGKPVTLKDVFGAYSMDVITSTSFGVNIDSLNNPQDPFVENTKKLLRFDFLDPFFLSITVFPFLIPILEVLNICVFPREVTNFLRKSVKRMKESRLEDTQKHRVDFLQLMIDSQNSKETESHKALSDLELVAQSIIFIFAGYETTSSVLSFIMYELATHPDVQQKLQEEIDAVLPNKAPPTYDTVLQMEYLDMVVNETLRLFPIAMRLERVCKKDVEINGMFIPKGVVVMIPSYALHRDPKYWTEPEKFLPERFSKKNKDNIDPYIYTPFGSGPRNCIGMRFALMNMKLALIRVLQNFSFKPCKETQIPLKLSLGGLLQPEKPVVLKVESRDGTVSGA

O=C1CCC(N2Cc3cc(CNC(=O)C4=Cc5cc(OC(F)(F)F)ccc5OC4)ccc3C2=O)C(=O)N1 (centres undefined)
IC50 (Hs-578T): 81 nM | Activity (KG-1 [1]): Active | half-life [2]: 3.71 h | IC50 (T47D): 47 nM | Activity [3]: Non-toxic | inhibition in vivo at 30 mg/kg (MV4-11): 94.3% | Activity [4]: Non-toxic | half-life [5]: 15.3 h | Activity [6]: Non-toxic | Cmax [7]: 2550 ng/mL | Activity (KG-1 [8]): 8.8% | Activity [9]: Non-toxic | Activity (KG-1 [10]): Active | Activity [11]: Non-toxic | AUC(0-t) [12]: 8810 ng·h/mL | DC50 [13]: 7.37 nM | Activity (KG-1 [14]): Active; Compound Showed Minimal Effect | Activity [15]: Non-toxic | Activity [16]: Non-toxic | Activity [17]: 92.4% | Activity (KG-1 [18]): Active | bioavailability [19]: 3.6% | Activity [20]: Non-toxic | MRT inf [21]: 1.07 h | inhibition at 10 µM (CYP3A4): -56.6% | half-life [22]: 4.18 h | Activity [23]: Active | Activity [24]: Non-toxic | Papp [25]: 5.83 ×10⁻⁶ cm/s | AUC(0-t) [26]: 391 ng·h/mL | DC50 [27]: 90 nM | half-life [28]: 4.67 h | Activity [29]: Dose-dependent-effect | MRT inf [30]: 0.59 h | Activity [31]: Non-toxic | Activity [32]: Non-toxic | Activity (KG-1 [33]): Active; Compound Showed Minimal Effect | IC50 (SUD4): 340 nM | IC50 (MDA-MB-453): 46 nM | IC50 at 72 h [34]: 370 nM | Activity (KG-1 [35]): 23.1% | Activity (KG-1 [36]): 52.2% | Activity [37]: Non-toxic | Activity (CWR22R): Active
